Test results reported in ChEMBL document CHEMBL3217442, “Synthesis and bioevaluation of aryl hydroxamates distinguishing between NAD+ and ATP-dependent DNA ligases” (Medchemcomm, 2012).
Values after ≈ are worked out from the molar mass of the structure shown. Active and inactive are the calls of the source. The calls are words filed in the database; no cut-off is given here.

Key:
Salmonella typhimurium [1] = test: Antibacterial activity against Salmonella typhimurium LT2 expressing LigA after 20 hrs; format: functional
Salmonella typhimurium [2] = test: Antibacterial activity against Salmonella typhimurium TT15151 harboring LigA null mutant rescued with ATP-dependent DNA ligase after 20 hrs; format: functional, Salmonella enterica subsp. enterica serovar Typhimurium
Escherichia coli [3] = test: Antibacterial activity against Escherichia coli GR501 harboring temperature sensitive lig251 mutant rescued with T4 DNA ligase after 20 hrs; format: functional
[4] = Ratio of IC50 for human DNA ligase 1 to IC50 for Mycobacterium tuberculosis DNA LigA
[5] = Inhibition of Mycobacterium tuberculosis DNA LigA using 22-mer and 18-mer DNA complementary strand as substrate after 1 hr by 15% polyacrylamide gel electrophoresis
[6] = Inhibition of Bacteriophage […] using 22-mer and 18-mer DNA complementary strand as substrate after 1 hr by 15% polyacrylamide gel electrophoresis; set-up: species or system Tequatrovirus T4
[7] = Ratio of IC50 for Bacteriophage T4 DNA ligase to IC50 for Mycobacterium tuberculosis DNA LigA
[8] = Competitive inhibition of Mycobacterium tuberculosis DNA LigA using NDA+ as substrate by double reciprocal plot analysis
Escherichia coli [9] = test: Binding affinity to Escherichia coli pUC18 DNA after 1 hr by gel shift assay
DNA ligase 1 = DNA ligase 1 (Homo sapiens, UniProt P18858); test: Inhibition of human DNA ligase 1 expressed in Escherichia coli BL21 (DE3) using 22-mer and 18-mer DNA complementary strand as substrate after 1 hr by 15% polyacrylamide gel electrophoresis
Chain of DNA ligase 1 (P18858 whole entry): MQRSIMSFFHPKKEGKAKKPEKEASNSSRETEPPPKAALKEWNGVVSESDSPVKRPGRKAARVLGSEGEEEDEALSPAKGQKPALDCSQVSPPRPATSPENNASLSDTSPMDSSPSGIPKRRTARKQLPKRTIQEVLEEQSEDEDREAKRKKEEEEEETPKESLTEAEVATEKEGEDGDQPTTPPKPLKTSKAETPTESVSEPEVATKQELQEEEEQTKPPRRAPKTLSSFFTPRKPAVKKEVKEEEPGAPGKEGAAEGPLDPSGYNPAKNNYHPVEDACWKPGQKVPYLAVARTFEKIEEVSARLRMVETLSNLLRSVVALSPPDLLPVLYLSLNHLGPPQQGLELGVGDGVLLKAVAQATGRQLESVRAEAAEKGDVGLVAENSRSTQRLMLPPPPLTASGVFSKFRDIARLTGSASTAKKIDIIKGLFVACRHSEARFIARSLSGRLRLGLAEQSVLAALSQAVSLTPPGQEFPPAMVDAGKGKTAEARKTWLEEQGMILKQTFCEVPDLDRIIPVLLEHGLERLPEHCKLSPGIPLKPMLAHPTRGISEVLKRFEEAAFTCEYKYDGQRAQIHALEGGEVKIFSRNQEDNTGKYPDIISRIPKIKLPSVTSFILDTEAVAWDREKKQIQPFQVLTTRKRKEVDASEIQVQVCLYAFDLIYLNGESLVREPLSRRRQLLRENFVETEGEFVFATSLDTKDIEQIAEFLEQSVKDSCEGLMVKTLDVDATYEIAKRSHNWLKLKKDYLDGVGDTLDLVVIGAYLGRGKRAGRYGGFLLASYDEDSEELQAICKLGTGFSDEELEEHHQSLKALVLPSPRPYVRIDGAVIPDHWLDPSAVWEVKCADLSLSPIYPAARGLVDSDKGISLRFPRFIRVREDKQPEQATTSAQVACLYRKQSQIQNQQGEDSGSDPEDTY

Salmonella typhimurium [10] = test: Bactericidal activity against Salmonella typhimurium LT2 expressing LigA assessed as bacterial cell viability at 0.5 to 2.5 times MIC after 5 hrs; format: functional, organism-based; settings: Salmonella enterica subsp. enterica serovar Typhimurium
Salmonella typhimurium [11] = test: Bactericidal activity against Salmonella typhimurium TT15151 harboring LigA null mutant rescued with ATP-dependent DNA ligase assessed as bacterial cell viability at 0.5 to 2.5 times MIC after 5 hrs; format: functional, organism-based; settings: Salmonella enterica subsp. enterica serovar Typhimurium
Bos taurus = species: Bos taurus; test: Displacement of ethidium bromide from calf thymus DNA assessed as relative fluorescence intensity at 250 uM
[12] = Salmonella enterica subsp. enterica serovar Typhimurium
[13] = Salmonella enterica, TT15151, 20 h

Row | Structure (SMILES) | MIC (Salmonella typhimurium [1]; [12]) | MIC (Salmonella typhimurium [2]; [13]) [µg/mL] | MIC (Escherichia coli [3]; GR501, 20 h) [µg/mL] | MIC (Escherichia coli [3]) | Ratio IC50 [4] | IC50 [5] [µM] | IC50 [6] [µM] | Ratio IC50 [7] | also measured
1 | C=CCOc1ccc(OCc2ccccc2)cc1C(=O)NO | inactive | 150 (≈ 501 µM) | 400 (≈ 1340 µM) |  |  |  |  |  | 
2 | C=CCOc1cc(OCc2ccc(Br)cc2)ccc1C(=O)NO | inactive | 40 (≈ 106 µM) |  | inactive |  |  |  |  | 
3 | O=C(NO)c1ccc2ccccc2c1OCc1ccc(Cl)c(Cl)c1 |  |  | > 200 |  | 10 | 10.6 | 5.5 | 10 | 
4 | C=CCOc1cc(OCc2cc(Cl)ccc2Cl)ccc1C(=O)NO | inactive | 200 (≈ 543 µM) |  | inactive |  |  |  |  | 
5 | C=CCOc1ccc(C(=O)NO)c(OCC=C)c1 |  |  | 150 (≈ 602 µM) |  |  |  |  |  | MIC (Salmonella typhimurium [1]; Salmonella enterica, LT2, 20 h): 800 µg/mL (≈ 3210 µM); MIC (Salmonella typhimurium [2]; [12]): inactive
6 | CCCCCCOc1c(C(=O)NO)ccc2ccccc12 |  |  | > 200 |  | 10 | 13.6 | 9.6 | 10 | 
7 | O=C(NO)c1ccccc1OCc1ccc(Cl)c(Cl)c1 |  |  |  | inactive | 10 | 20 | < 20 | 10 | 
8 | O=C(NO)c1ccc2ccccc2c1OCc1cccc(Cl)c1 |  |  |  | inactive | 10 | 20 | 12 | 10 | 
9 | C=CCOc1ccc(OCC=C)c(C(=O)NO)c1 | inactive | 150 (≈ 602 µM) | 200 (≈ 802 µM) |  |  |  |  |  | 
10 | C=CCOc1ccc(OCc2ccc(Br)cc2)cc1C(=O)NO | inactive | 20 (≈ 52.9 µM) | 80 (≈ 212 µM) |  |  |  |  |  | 
11 | C=CCOc1ccccc1C(=O)NO |  | 70 (≈ 362 µM) | 90 (≈ 466 µM) |  | 10 | 7.07 | 62.3 | 10 | MIC (Salmonella typhimurium [1]; Salmonella enterica, LT2, 20 h): 20 µg/mL (≈ 104 µM); Ki [8]: 4.3 µM; Activity (Escherichia coli [9]): inactive; IC50 (DNA ligase 1): 59.3 µM; Activity (Salmonella typhimurium [10]): Active; Activity (Salmonella typhimurium [11]): Active; Activity (Bos taurus): inactive
12 | O=C(NO)c1ccccc1OCc1cccc(Cl)c1 |  |  |  | inactive | 10 | 24 | 8 | 10 | 
13 | C=CCOc1c(OCc2ccccc2)cccc1C(=O)NO | inactive |  |  | inactive |  |  |  |  | MIC (Salmonella typhimurium [2]; [12]): inactive
14 | C=CCOc1cccc(C(=O)NO)c1OCC=C | inactive | 400 (≈ 1600 µM) |  | inactive |  |  |  |  | 
15 | O=C(NO)c1ccccc1OCC(O)Cn1cc(-c2ccccc2)nn1 (stereo not drawn) |  | 50 (≈ 141 µM) | 40 (≈ 113 µM) |  | 10 | 11.4 | 31.4 | 10 | MIC (Salmonella typhimurium [1]; Salmonella enterica, LT2, 20 h): 30 µg/mL (≈ 84.7 µM); Activity (Escherichia coli [9]): inactive; IC50 (DNA ligase 1): 41.8 µM; Activity (Bos taurus): inactive
16 | C#CCOc1ccc(OCC=C)c(C(=O)NO)c1 |  |  | 150 (≈ 607 µM) |  |  |  |  |  | MIC (Salmonella typhimurium [1]; Salmonella enterica, LT2, 20 h): 600 µg/mL (≈ 2430 µM); MIC (Salmonella typhimurium [2]; [12]): inactive
17 | C=CCOc1ccc(OCc2cc(Cl)ccc2Cl)cc1C(=O)NO | inactive | 800 (≈ 2170 µM) | 400 (≈ 1090 µM) |  |  |  |  |  | 
